Reference: ChEMBL document CHEMBL5214886, “An appraisal of anti-mycobacterial activity with structure-activity relationship of piperazine and its analogues: A review” (Eur J Med Chem, 2021)
≈ marks a conversion by molar mass, not a printed value.

Tests used:
Assay type in all cases: functional
[1] = system: Mycobacterium tuberculosis; experiment: Antimycobacterial activity against multi drug resistant Mycobacterium tuberculosis 16833 assessed as reduction in bacterial growth by MABA analysis
[2] = system: Mycobacterium tuberculosis; experiment: Antimycobacterial activity against multi drug resistant Mycobacterium tuberculosis 16995 assessed as reduction in bacterial growth by MABA analysis
[3] = system: Mycobacterium tuberculosis; experiment: Antimycobacterial activity against multi drug resistant Mycobacterium tuberculosis assessed as reduction in bacterial growth by two-fold agar dilution method

In the case of CO[C@H]1/C=C/O[C@@]2(C)Oc3c(C)c(O)c4c(O)c(c(/C=N/N5CCN(C)CC5)c(O)c4c3C2=O)NC(=O)/C(C)=C\C=C\[C@H](C)[C@H](O)[C@@H](C)[C@@H](O)[C@@H](C)[C@H](OC(C)=O)[C@@H]1C [RIFAMPIN], the MIC [1] is reported as > 48.6 µM and the MIC [2] is reported as > 48.6 µM.

COc1ccc(N2CCN(c3ccc(CNC(=O)c4ccc([N+](=O)[O-])o4)cc3)CC2)cc1 showed an MIC [1] of 9.16 µM (≈ 4 µg/mL) and an MIC [2] of 9.16 µM (≈ 4 µg/mL).

Work on O=C(NCc1ccc(N2CCN(c3ccc(F)cc3)CC2)cc1)c1ccc([N+](=O)[O-])o1 yielded an MIC [1] of 7.61 µM (≈ 3.23 µg/mL) and an MIC [2] of 4.22 µM (≈ 1.79 µg/mL).

O=C(NCc1ccc(N2CCN(c3ccc(F)cc3F)CC2)cc1)c1ccc([N+](=O)[O-])o1 showed an MIC [1] of 4.16 µM (≈ 1.84 µg/mL) and an MIC [2] of 3.19 µM (≈ 1.41 µg/mL).

O=C(/C=C(\O)c1cc(Cc2c(F)cc(F)cc2F)cn(Cc2ccccc2F)c1=O)C(=O)N1CCN(c2cccc3ccccc23)CC1 was tested, and the MIC [3] was ≤ 1.5 µM.

In the case of NNC(=O)c1ccncc1 [ISONIAZID], the MIC [1] is reported as 0.06 µM (≈ 0.00823 µg/mL) and the MIC [2] is reported as 0.06 µM (≈ 0.00823 µg/mL).
